Key:
[1] = Thermal gravimetric analysis (TGA); assay type: physicochemical; settings: for Wt. % remaining @ given Temp: nitrogen, 10° C. per minute ramp; for weight loss compared with chloride salt of the same cation: processing range of 200-320° C.
Protocol: Test Methods Test Method I—Thermal Gravimetric Analysis (TGA)
The thermal decomposition of each salt was determined by thermal gravimetric analysis (TGA) under an inert nitrogen atmosphere using a 10° C. per minute temperature ramp using a PerkinElmer Thermogravimetric Analyzer TGA 7, manufactured by PerkinElmer Instruments of Norwalk, Conn.
Table 3 provides thermal gravimetric data for antistats of the present invention and comparative antistats.

[2] = Bioelimination study, amount of fluorochemical sulfonate in male rat liver tissue; assay type: in vivo; settings: for Amount of Sulfonate, Day 1N / Amount of Sulfonate, Day 1 / Amount of Sulfonate, Day 14N / Amount of Sulfonate, Day 14 / Amount of Sulfonate, Day 28N / Amount of Sulfonate, Day 28: male rat liver; for Amount of Sulfonate, Day 1N / Amount of Sulfonate, Day 14N / Amount of Sulfonate, Day 28N: normalized to a feeding level of 3 mg/kg body weight per day; for Amount of Sulfonate, Day 1 / Amount of Sulfonate, Day 14 / Amount of Sulfonate, Day 28: potassium salts dosed at 30 (C4), 10 (C6), 3 (C8) mg/kg body weight/day; for elimination from the body: tested in the form of its potassium salt
Protocol: Bioelimination Study with Perfluorobutanesulfonate
Comparative study of potassium perfluorobutanesulfonate (using a dose level of 30 mg/kg body weight/day), potassium perfluorohexanesulfonate (using a dose level of 10 mg/kg body weight/day), and potassium perfluorooctanesulfonate (using a dose level of 3 mg/kg body weight/day).

[3] = Surface Resistivity Test (ASTM D-257) of topically coated polyester film; settings: 72° F., 27% relative humidity; for Surface Resistivity 1% MEK solution: 1% solution in MEK coated on polyester film; for Surface Resistivity 6% MEK: 6% solution in MEK coated on polyester film
Protocol: Test Method IV—Surface Resistivity Test
The Surface Resistivity Test was conducted according to the procedure of ASTM Standard D-257; “D.C. Resistance or Conductance of Insulating Materials”. The surface resistivity was measured under these conditions using an ETS Model 872 Wide Range Resistance Meter fitted with a Model 803B probe (Electro-Tech Systems, Inc., Glenside, Pa.). This apparatus applies an external voltage of 10 Volts across two concentric ring electrodes and provides surface resistivity readings in ohm/cm^2. The room temperature was 72° F. and there was a 27% relative humidity.
Topically Coated Polyester Film.
A 1% and 6% solution of the antistatic agent to be tested in methylethyl ketone (MEK) was prepared. About 2 mL of solution was pipetted onto the top of a sheet of polyester film with 25.5 cm by 17.8 cm dimensions. The solution was then drawn over the film using a #12 wire wound bar. The resulting coating was dried in a forced air oven for 2.5 minutes at 65° C.

[4] = Surface tension determination (Kruss K12 Tensiometer, Wilhelmy plate); assay type: physicochemical
Protocol: Test Method III—Surface Tension Determination
All surface tensions were determined using a Kruss K12 Tensiometer. It was integrated with an automatic dosimat and a computer, using a software package for dynamic contact angle (K121). The program was run using a Wilhelmy platinum plate (PL12) and glass sample vessel (GL7). All parts referenced above including instrument and computer can be purchased directly from Kruss USA, Charlotte, N.C.

[5] = at 28 days following completion of feeding, after normalization to the same feeding levels
[6] = liver amount at 28 days following completion of feeding
[7] = liver amount immediately following completion of feeding

With “[C12H25N^+(CH3)(CH2CH2O)mH(CH2CH2O)nH^−Cl] (m + n = 15) [ETHOQUAD ™ C/25]” the “Wt. % remaining @ given Temp” value ([1]; 200° C.) was 97.2 Wt. %, the “Wt. % remaining @ given Temp” value ([1]; 240° C.) was 89.4 Wt. % and the “Wt. % remaining @ given Temp” value ([1]; 280° C.) was 85.9 Wt. %. For the same molecule, the “Wt. % remaining @ given Temp” value ([1]; 320° C.) was 81.8 Wt. %.
With `O=S(=O)([O-])C(F)(F)C(F)(F)C(F)(F)C(F)(F)C(F)(F)C(F)(F)F.[K+]` [C6F13SO3^−, potassium perfluorohexanesulfonate] the “factor lower than C8F17SO3^−” value [2, 5] was 21.5, the “factor lower than C8F17SO3^−” value [2, 6] was 6.5 and the “factor lower than C8F17SO3^−” value [2, 7] was 1.3. For the same molecule, the “Amount of Sulfonate, Day 1N” value [2] was 98 ppm, the “Amount of Sulfonate, Day 1” value [2] was 327 ± 52 ppm and the “Amount of Sulfonate, Day 14N” value [2] was 19 ppm. The “Amount of Sulfonate, Day 14” value [2] was 61.9 ± 11.7 ppm, the “Amount of Sulfonate, Day 28N” value [2] was 11 ppm and the “Amount of Sulfonate, Day 28” value [2] was 36.3 ± 7.4 ppm.
With “CH3CH2C[CH2(OCH2CH(CH3))xNH3^+][CH2(OCH2CH(CH3))yNH^3^+][CH2(OCH2CH(CH3))zNH3^+][^−N(SO2CF3)2]3 where x+y+z˜5.3; JEFFAMINE™ T-403 DMI salt [Antistat 3]” the “Surface Resistivity 1% MEK solution” value [3] was 1.7 × 10^9 Ohm/cm^2 and the “Surface Resistivity 6% MEK” value [3] was 1.1 × 10^9 Ohm/cm^2.
For “[(+)H3NCH(CH3)CH2[OCH(CH3)CH2]a[OCH2CH2]8.5[OCH2CH(CH3)]CNH3(+)][C8F17SO3^−]2 (a+c=2.5) [Comparative Antistat 1]”, the “Surface Resistivity 1% MEK solution” value [3] was 1.6 × 10^11 Ohm/cm^2 and the “Surface Resistivity 6% MEK” value [3] was 1.5 × 10^11 Ohm/cm^2.
In the case of “[CH3(OCH2CH2)19(OCH2CHCH3)2NH3^+][^−O3SCF3] [Comparative Antistat 2]”, the “Surface Resistivity 1% MEK solution” value [3] is reported as 1.5 × 10^12 Ohm/cm^2 and the “Surface Resistivity 6% MEK” value [3] is reported as 1.6 × 10^12 Ohm/cm^2.
With “CH3CH2C[CH2(OCH2CH(CH3))xNH3^+][CH2(OCH2CH(CH3))yNH3^+][CH2(OCH2CH(CH3))zNH3^+][—N(SO2C4F9)2]3 where x+y+z˜5.3; JEFFAMINE™ T-403 DBI salt [Antistat 2]” the “Surface Resistivity 1% MEK solution” value [3] was 2.4 × 10^10 Ohm/cm^2 and the “Surface Resistivity 6% MEK” value [3] was 1.5 × 10^11 Ohm/cm^2.
In the case of “[C18H37N^+(CH3)(CH2CH2O)mH(CH2CH2O)nH][^−N(SO2CF3)2]; (m+n=15) [Antistat 5]”, the “Wt. % remaining @ given Temp” value ([1]; 200° C.) is reported as 99.6 Wt. %, the “Wt. % remaining @ given Temp” value ([1]; 240° C.) is reported as 99.2 Wt. % and the “Wt. % remaining @ given Temp” value ([1]; 280° C.) is reported as 98.9 Wt. %. For the same molecule, the “Wt. % remaining @ given Temp” value ([1]; 320° C.) was 98.0 Wt. % and the “weight loss compared with chloride salt of the same cation” value [1] was “less weight loss than ETHOQUAD™ 18/25”.
For “[C18H37N^+(CH3)(CH2CH2O)mH(CH2CH2O)nH^−Cl] (m + n = 15) [ETHOQUAD ™ 18/25]”, the “Wt. % remaining @ given Temp” value ([1]; 200° C.) was 97.6 Wt. %, the “Wt. % remaining @ given Temp” value ([1]; 240° C.) was 90.8 Wt. % and the “Wt. % remaining @ given Temp” value ([1]; 280° C.) was 85.5 Wt. %. For the same molecule, the “Wt. % remaining @ given Temp” value ([1]; 320° C.) was 82.0 Wt. %.
In the case of “[(+)H3NCH(CH3)CH2[OCH(CH3)CH2]a[OCH2CH2]8.5[OCH2CH(CH3)]cNH3(+)][—N(SO2C4F9)2]2 (a+c=2.5); JEFFAMINE™ XJT-500 DBI salt [Antistat 1]”, the “Surface Resistivity 1% MEK solution” value [3] is reported as 8.5 × 10^9 Ohm/cm^2 and the “Surface Resistivity 6% MEK” value [3] is reported as 3.1 × 10^9 Ohm/cm^2.
For “[C12H25N^+(CH3)(CH2CH2O)mH(CH2CH2O)nH][^−N(SO2CF3)2]; (m+n=15) [Antistat 4]”, the “Wt. % remaining @ given Temp” value ([1]; 200° C.) was 99.7 Wt. %, the “Wt. % remaining @ given Temp” value ([1]; 240° C.) was 99.5 Wt. % and the “Wt. % remaining @ given Temp” value ([1]; 280° C.) was 99.3 Wt. %. The “Wt. % remaining @ given Temp” value ([1]; 320° C.) was 98.6 Wt. % and the “weight loss compared with chloride salt of the same cation” value [1] was “less weight loss than ETHOQUAD™ C/25”.
With `O=S(=O)([N-]S(=O)(=O)C(F)(F)C(F)(F)C(F)(F)C(F)(F)F)C(F)(F)C(F)(F)C(F)(F)C(F)(F)F.[K+]` [C4F9SO2NKSO2C4F9, potassium bis(perfluorobutanesulfonyl)imide] the surface energy ([4]; 10 ppm in water) was 61.85 dyne/cm, the surface energy ([4]; 100 ppm in water) was 41.61 dyne/cm and the surface energy ([4]; 1000 ppm in water) was 34.02 dyne/cm.
In the case of `O=S(=O)([O-])C(F)(F)C(F)(F)C(F)(F)C(F)(F)F.[K+]` [Antistat C4F9SO3K, Potassium perfluorobutane sulfonate], the “factor lower than C6F13SO3^−” value [2, 5] is reported as 4400, the “factor lower than C6F13SO3^−” value [2, 6] is reported as > 1400 and the “factor lower than C6F13SO3^−” value [2, 7] is reported as > 100. The “Amount of Sulfonate, Day 1N” value [2] was 0.31 ppm, the “Amount of Sulfonate, Day 1” value [2] was 3.09 ± 1.58 ppm and the “Amount of Sulfonate, Day 14N” value [2] was 0.0126 ppm. For the same molecule, the “Amount of Sulfonate, Day 14” value [2] was 0.126 ± 0.084 ppm, the “Amount of Sulfonate, Day 28N” value [2] was 0.0025 ppm and the “Amount of Sulfonate, Day 28” value [2] was 0.025 ± 0.015 ppm. The “elimination from the body” value ([2]; listed as C4F9SO3^−) was “unexpectedly fast and effective elimination”, the “elimination from the body” value ([2]; listed as perfluorobutanesulfonate) was “eliminates from the body more rapidly than perfluorohexanesulfonate and much more rapidly than perfluorooctanesulfonate” and the surface energy ([4]; 10 ppm in water) was 70 dyne/cm. The surface energy ([4]; 100 ppm in water) was 67.5 dyne/cm and the surface energy ([4]; 1000 ppm in water) was 53 dyne/cm.
With “[(+)H3NCH(CH3)CH2[OCH(CH3)CH2]a[OCH2CH2]8.5[OCH2CH(CH3)]CNH3(+)][—N(SO2CF3)2]2 (a+c=2.5); JEFFAMINE™ XJT-500 [^—N(SO2CF3)2]salt [Antistat 7]” the “Surface Resistivity 1% MEK solution” value [3] was 1.2 × 10^9 Ohm/cm^2 and the “Surface Resistivity 6% MEK” value [3] was 3.7 × 10^8 Ohm/cm^2.
With `O=S(=O)([O-])C(F)(F)C(F)(F)C(F)(F)C(F)(F)C(F)(F)C(F)(F)C(F)(F)C(F)(F)F.[K+]` [Antistat C8F17SO3K, Potassium perfluorooctanesulfonate] the “Amount of Sulfonate, Day 1N” value [2] was 419 ppm, the “Amount of Sulfonate, Day 1” value [2] was 419 ± 86 ppm and the “Amount of Sulfonate, Day 14N” value [2] was 309 ppm. The “Amount of Sulfonate, Day 14” value [2] was 309 + 34 ppm, the “Amount of Sulfonate, Day 28N” value [2] was 237 ppm and the “Amount of Sulfonate, Day 28” value [2] was 237 ± 25 ppm. For the same molecule, the surface energy ([4]; 10 ppm in water) was 67.68 dyne/cm, the surface energy ([4]; 100 ppm in water) was 54.09 dyne/cm and the surface energy ([4]; 1000 ppm in water) was 33.17 dyne/cm.
For “[CH3(OCH2CH2)19(OCH2CHCH3)2NH3^+][^−N(SO2CF3)2] [Antistat 6]”, the “Surface Resistivity 1% MEK solution” value [3] was 1.6 × 10^9 Ohm/cm^2 and the “Surface Resistivity 6% MEK” value [3] was 7.8 × 10^9 Ohm/cm^2.

— US7678941B2, “Polyoxyalkylene ammonium salts and their use as antistatic agents” (3M Innovative Properties Company, priority 2001, dated 2010)
